In patent US6723567B1, “Screening method for apoptosis and necrosis” (Aponetics Ltd., priority 1998, dated 2004):
“Also recorded” adds a separate entry of the source. Numbered stars: 1 amine (or outer) side, 2 acyl side, 3 side chain; on linkers, the order of the positions; unused ones are H or OH. Bridge positions count the residues as written; N and C are the ends. Square brackets hold non-standard residues; d marks the D form. Peptide text beside a SMILES is read from it. I, II: the chains in the order shown. Actinocin(9to1) = Cc1c2oc3c(C)ccc(C(=O)[*:1])c3nc-2c(C(=O)[*:2])c(N)c1=O; NMeV = CN[C@H](C(=O)O)C(C)C; Sar = CNCC(=O)O

Tests used:
A20GFP = assay: ActD/CHX interference with the GFP apoptosis assay in A20GFP; assay type: cell-based, murine; details: for inhibition of sFasL SN induced apoptosis: 5 μg/ml ActD and/or 10 μg/ml CHX with 100 μl sFasL SN, 10 hours; for fluorescence intensity / fluorescing capacity of A20GFP: 5 μg/ml ActD and/or 10 μg/ml CHX, 10 hours at 37° C.
Method: To find out whether the fluorescence of A20GFP and the GFP apoptosis assay as described in example 7 is dependent on the de novo transcription and protein synthesis, Act D (pharmacy of the University Hospital, Basel), a RNA synthesis inhibitor, and Cycloheximide (Sigma), a protein synthesis inhibitor, were tested in our experimental protocol. After washing A20GFP cells with PBS, 250000 cells were aliquoted in FACS-tubes and incubated with:
a) Tube 1 (control): 500 μl medium complete (MC)
b) Tube 2: 100 μl sFasL SN and 400 μl MC
c) Tube 3: 500 μl MC and 5 μg/ml ActD
d) Tube 4: 400 μl MC, 100 μl sFasL SN, 5 μg/ml ActD
e) Tube 5: 500 μl MC and 10 μg/ml CHX
f) Tube 6: 400 μl MC, 100 μl sFasL SN and 10 μg/ml CHX
g) Tube 7: 500 μl MC, 5 μg/ml Act D and 10 μg/ml CHX
h) Tube 8: 400 μl MC, 100 μl sFasL SN, 5 μg/ml Act D and 10 μg/ml CHX
Tubes 1-8 (a-h) were incubated for 10 hours at 37° C. The fluorescing status of the cells was assayed at 10 hours post treatment.

JurkatGFP = assay: Apoptosis assay: induction of apoptosis in JurkatGFP by recombinant human TRAIL; assay type: cell-based
Method: This apoptosis assay has been performed with recombinant human TRAIL, a known cell death inducer in Jurkat cells. 250,000 JurkatGFP cells were aliquoted in two different FACS-tubes.
Tube 1: (control): cells were incubated with 500 μl RPMI medium,
Tube 2: cells were incubated with 25 μl recombinant human TRAIL and 475 μl RPMI medium.
Both tubes were incubated for 18 hours at 37° C. After incubation the test tubes were immediately measured without prior washing.

## C[C@@H]1C[C@@H]([C@H](O)CC2CC(=O)NC(=O)C2)C(=O)[C@@H](C)C1 [CHX, Cycloheximide]
A20GFP
  inhibition of sFasL SN induced apoptosis: nor do they inhibit sFasL SN induced apoptosis
  fluorescence intensity / fluorescing capacity of A20GFP: do not substantially interfere with the fluorescing capacity of A20GFP; also recorded: Neither a reduction of GFP-associated fluorescence

## Cc1c2oc3c(C)ccc(C(=O)N[C@@H]4C(=O)N[C@H](C(C)C)C(=O)N5CCC[C@H]5C(=O)N(C)CC(=O)N(C)[C@@H](C(C)C)C(=O)O[C@@H]4C)c3nc-2c(C(=O)N[C@@H]2C(=O)N[C@H](C(C)C)C(=O)N3CCC[C@H]3C(=O)N(C)CC(=O)N(C)[C@@H](C(C)C)C(=O)O[C@@H]2C)c(N)c1=O [ActD, Actinomycin D] (I: T[dV]P[Sar][NMeV] / II: T[dV]P[Sar][NMeV]; ester I:1-I:C, II:1-II:C; linker I:N-II:N via Actinocin(9to1))
A20GFP
  inhibition of sFasL SN induced apoptosis: nor do they inhibit sFasL SN induced apoptosis
  fluorescence intensity / fluorescing capacity of A20GFP: do not substantially interfere with the fluorescing capacity of A20GFP; also recorded: Neither a reduction of GFP-associated fluorescence

B1: recombinant human TRAIL: TNF-related apoptosis inducing ligand, a known cell death inducer in Jurkat cells (protein, UniProt P50591 1-281, looked up)
Tumor necrosis factor ligand …: MAMMEVQGGPSLGQTCVLIVIFTVLLQSLCVAVTYVYFTNELKQMQDKYSKSGIACFLKEDDSYWDPNDEESMNSPCWQVKWQLRQLVRKMILRTSEETISTVQEKQQNISPLVRERGPQRVAAHITGTRGRSNTLSSPNSKNEKALGRKINSWESSRSGHSFLSNLHLRNGELVIHEKGFYYIYSQTYFRFQEEIKENTKNDKQMVQYIYKYTSYPDPILLMKSARNSCWSKDAEYGLYSIYQGGIFELKENDRIFVSVTNEHLIDMDHEASFFGAFLVG
JurkatGFP; 25 μl recombinant human TRAIL in 500 μl, 18 hours at 37° C.
  induction of apoptosis in JurkatGFP: induced apoptosis in JurkatGFP cells
JurkatGFP; data not shown
  dose dependence of apoptosis induction in JurkatGFP: dose dependent manner
